US12448373B2, “Azetidinyl-acetamides as CXCR7 inhibitors” (CHEMOCENTRYX, INC., priority 2021, dated 2025)

Target: T1, CXCR7 (Homo sapiens, UniProt P25106)
T1 construct: expressed in transfected cells; host or cells: CHO cells (CHO-CXCR7), transgenes maintained with Hygromycin B and G418
Assay: CXCR7 β-arrestin recruitment assay in CHO-CXCR7 cells (ProLink/EA β-galactosidase complementation), induced by human SDF-1a
Type: cell-based
Conditions: assay buffer, SDF-1a at EC50 concentration
Outline: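 SDF-1α-induced β-arrestin recruitment was measured by enzyme-fragment complementation (ProLink-CXCR7 with β-arrestin-EA) in stable CHO cells. Agonist was dosed at its EC50, determined the same day, alongside serially diluted compound for 1.5 h at 37 °C. Fluorogenic galactoside substrate (0.4 mM, 30 min) was read at 360/465 nm, with IC50 from 3-parameter nonlinear regression.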

T1 sequence (P25106 whole entry): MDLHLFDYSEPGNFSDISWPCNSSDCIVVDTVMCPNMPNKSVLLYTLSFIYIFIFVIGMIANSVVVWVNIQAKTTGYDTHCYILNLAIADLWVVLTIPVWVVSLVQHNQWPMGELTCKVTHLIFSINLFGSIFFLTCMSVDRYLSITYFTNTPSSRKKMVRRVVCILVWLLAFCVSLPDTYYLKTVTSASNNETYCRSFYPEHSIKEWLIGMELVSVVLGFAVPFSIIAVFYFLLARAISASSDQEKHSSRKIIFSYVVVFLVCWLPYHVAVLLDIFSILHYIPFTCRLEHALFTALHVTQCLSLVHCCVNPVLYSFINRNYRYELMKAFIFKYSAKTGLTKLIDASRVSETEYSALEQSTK

IC50 | SMILES
5 to 100 nM | CC(C)(NC(=O)CC1(NC(=O)c2cn(-c3ccc(F)cc3F)nn2)CN(C2CCCCC2)C1)c1ccccn1 [Example 1.075]
< 5 nM | Cc1cc(C(C)(C)NC(=O)CC2(NC(=O)c3cc(-c4ccc(F)cc4F)on3)CN([C@H]3CC[C@@](C)(O)CC3)C2)ccn1 [Example 1.210]
< 5 nM | COc1cc(C)nc(C(C)(C)NC(=O)CC2(NC(=O)c3cc(-c4ccc(F)cc4F)on3)CN([C@H]3CC[C@@](C)(O)CC3)C2)n1 [Example 1.167]
5 to 100 nM | Cc1cc(C(C)(C)NC(=O)CC2(NC(=O)c3cc(-c4ccc(F)cc4F)on3)CN(C3CCC(C)(O)CC3)C2)cc(C)n1 (centres unmarked) [Example 1.111]
< 5 nM | CC(C)(NC(=O)CC1(NC(=O)c2cc(-c3ccc(F)cc3F)on2)CN([C@H]2CCCCC2(C)C)C1)c1ccccn1 [Example 1.275]
100 to 1000 nM | COc1cccc(C(C)(C)NC(=O)CC2(NC(=O)c3cc(-c4ccc(F)cc4F)on3)CN(CC3(C)COC3)C2)c1 [Example 1.174]
5 to 100 nM | CC(C)(NC(=O)CC1(NC(=O)c2cc(-c3ccc(F)cc3F)on2)CN(C2CC2)C1)c1ccccn1 [Example 1.313]
< 5 nM | CC(C)(NC(=O)CC1(NC(=O)c2cc(-c3ccc(F)cc3F)on2)CN([C@H]2CC[C@@](C)(O)CC2)C1)c1cc(Cl)cc(Cl)c1 [Example 1.086]
5 to 100 nM | CC(C)(NC(=O)CC1(NC(=O)c2cnc(-c3ccc(F)cc3F)s2)CN([C@H]2CC[C@@](C)(O)CC2)C1)c1cccc(Cl)c1 [Example 1.068]
5 to 100 nM | COc1cccc(C(C)(C)NC(=O)CC2(NC(=O)c3cc(-c4ccc(F)cc4F)on3)CN(C3CCCCC3)C2)n1 [Example 1.272]
100 to 1000 nM | CC(C)(O)CN1CC(CC(=O)NC(C)(C)c2ccc(Cl)cc2)(NC(=O)c2cc(-c3ccc(F)cc3F)on2)C1 [Example 1.138]
5 to 100 nM | CC(C)(NC(=O)CC1(NC(=O)c2nnc(-c3ccc(F)cc3F)s2)CN([C@H]2CC[C@](C)(O)CC2)C1)c1cc(F)cc(F)c1 [Example 1.028]
5 to 100 nM | Cn1cc(C(C)(C)NC(=O)CC2(NC(=O)c3cc(-c4ccc(F)cc4F)on3)CN(C3CCCCC3)C2)cn1 [Example 1.273]
< 5 nM | CC(C)(NC(=O)CC1(NC(=O)c2cc(-c3ccc(F)cc3F)on2)CN([C@H]2CC[C@](C)(O)CC2)C1)c1ccccc1Cl [Example 1.219]
< 5 nM | Cc1cccc(C(C)(C)NC(=O)CC2(NC(=O)c3cc(-c4ccc(F)cc4F)on3)CN([C@H]3CC[C@@](C)(O)CC3)C2)c1 [Example 1.214]
5 to 100 nM | CC(C)(NC(=O)CC1(NC(=O)c2cc(-c3ccc(F)cc3F)on2)CN([C@H]2CCC[C@@H](O)C2)C1)c1ccccn1 [Example 1.286]
100 to 1000 nM | Cc1nc(C(C)(C)NC(=O)CC2(NC(=O)c3cc(-c4ccc(F)cc4F)on3)CN(C3CCC4(CC3)COC4)C2)sc1C [Example 1.245]
< 5 nM | COc1cccc(C(C)(C)NC(=O)CC2(NC(=O)c3cc(-c4ccc(F)cc4F)on3)CN([C@H]3CC[C@@](C)(O)CC3)C2)n1 [Example 1.203]
100 to 1000 nM | CC(C)N1CC(CC(=O)NC2(c3ncccn3)CC2)(NC(=O)c2cc(-c3ccc(F)cc3F)on2)C1 [Example 1.333]
5 to 100 nM | CCOc1cccc(C(C)(C)NC(=O)CC2(NC(=O)c3cc(-c4ccc(F)cc4F)on3)CN([C@H]3CC[C@@](C)(O)CC3)C2)c1 [Example 1.186]

IC50 | SMILES
5 to 100 nM | CC(C)(NC(=O)CC1(NC(=O)c2cc(-c3ccc(F)cc3F)on2)CN([C@H]2CC[C@](C)(O)CC2)C1)c1ccnc(C#N)c1 [Example 1.162]
5 to 100 nM | C[C@]1(O)CC[C@@H](N2CC(CC(=O)NC3(c4ccccn4)CC3)(NC(=O)c3cc(-c4ccc(F)cc4F)on3)C2)CC1 [Example 1.190]
5 to 100 nM | Cc1cc(C(C)(C)NC(=O)CC2(NC(=O)c3cn(-c4ccc(F)cc4F)nn3)CN(C3CCCCC3)C2)ccn1 [Example 1.074]
100 to 1000 nM | CC(C)(NC(=O)CC1(NC(=O)c2cc(-c3ccc(F)cc3F)sn2)CN([C@H]2CC[C@](C)(O)CC2)C1)c1cccc(Cl)c1 [Example 1.044]
100 to 1000 nM | Cc1cc(C)nc(C(C)(C)NC(=O)CC2(NC(=O)c3cc(-c4ccc(F)cc4F)on3)CN(C3CCOC3(C)C)C2)n1 (centres unmarked) [Example 1.353]
100 to 1000 nM | CC(C)(NC(=O)CC1(NC(=O)c2cc(-c3ccc(F)cc3F)on2)CN(CC2CCOC2)C1)c1ccccn1 (centres unmarked) [Example 1.223]
5 to 100 nM | CC(C)(NC(=O)CC1(NC(=O)c2cc(-c3ccc(F)cc3F)on2)CN(C2CC3(CC3)C2)C1)c1ccccn1 [Example 1.015]
< 5 nM | Cc1ccc(F)c(C(C)(C)NC(=O)CC2(NC(=O)c3cc(-c4ccc(F)cc4F)on3)CN([C@H]3CC[C@@](C)(O)CC3)C2)c1 [Example 1.184]
5 to 100 nM | CC(C)CN1CC(CC(=O)NC(C)(C)c2cc(F)cc(F)c2)(NC(=O)c2cc(-c3ccc(F)cc3F)on2)C1 [Example 1.036]
5 to 100 nM | CC(C)(O)CN1CC(CC(=O)NC(C)(C)c2cccc(C#N)c2)(NC(=O)c2cc(-c3ccc(F)cc3F)on2)C1 [Example 1.145]
5 to 100 nM | CC(C)(NC(=O)CC1(NC(=O)c2ncc(-c3ccc(F)cc3F)s2)CN([C@H]2CC[C@](C)(O)CC2)C1)c1cccc(Cl)c1 [Example 1.046]
1000 to 20000 nM | COc1ccc(C(C)(C)NC(=O)CC2(NC(=O)c3cc(-c4ccc(F)cc4F)on3)CN([C@H]3CC[C@](C)(O)CC3)C2)cc1 [Example 1.244]
5 to 100 nM | Cc1cc(C)nc(C(C)(C)NC(=O)CC2(NC(=O)c3cc(-c4ccc(F)cc4F)on3)CN(CC(C)C)C2)n1 [Example 1.037]
5 to 100 nM | COc1cc(F)cc(C(C)(C)NC(=O)CC2(NC(=O)c3cc(-c4ccc(F)cc4F)on3)CN([C@H]3CC[C@](C)(O)CC3)C2)c1 [Example 1.170]
5 to 100 nM | COc1cncc(C(C)(C)NC(=O)CC2(NC(=O)c3cc(-c4ccc(F)cc4F)on3)CN([C@H]3CC[C@](C)(O)CC3)C2)c1 [Example 1.142]
5 to 100 nM | COc1cc(C)cc(C(C)(C)NC(=O)CC2(NC(=O)c3cc(-c4ccc(F)cc4F)on3)CN([C@H]3CC[C@](C)(O)CC3)C2)c1 [Example 1.119]
5 to 100 nM | CC(C)(NC(=O)CC1(NC(=O)c2cc(-c3ccc(F)cc3F)on2)CN(C2CCC3(CC2)COC3)C1)c1cc(Cl)cc(Cl)c1 [Example 1.092]
5 to 100 nM | CC(C)(NC(=O)CC1(NC(=O)c2nnc(-c3ccc(F)cc3F)s2)CN([C@H]2CC[C@](C)(O)CC2)C1)c1cc(F)ccc1F [Example 1.024]
1000 to 20000 nM | C[C@H](NC(=O)CC1(NC(=O)c2cc(-c3ccc(F)cc3F)on2)CN(CC2CC2)C1)c1ccccn1 [Example 1.324]
< 5 nM | Cc1ccnc(C(C)(C)NC(=O)CC2(NC(=O)c3cc(-c4ccc(F)cc4F)on3)CN([C@H]3CC[C@](C)(O)CC3)C2)c1 [Example 1.164]

IC50 | SMILES
5 to 100 nM | CC(C)(NC(=O)CC1(NC(=O)c2cc(-c3ccc(F)cc3F)on2)CN(C2CCOCC2)C1)c1ccccn1 [Example 1.317]
100 to 1000 nM | Cc1cc(C(C)C)cc(C(C)(C)NC(=O)CC2(NC(=O)c3nnc(-c4ccc(F)cc4F)s3)CN([C@H]3CC[C@](C)(O)CC3)C2)n1 [Example 1.347]
5 to 100 nM | Cc1cc(C(C)(C)NC(=O)CC2(NC(=O)c3cc(-c4ccc(F)cc4F)on3)CN(CC3CC3)C2)ccn1 [Example 1.114]
< 5 nM | CC(C)(NC(=O)CC1(NC(=O)c2cc(-c3ccc(F)cc3F)on2)CN([C@H]2CC[C@@](C)(O)CC2)C1)c1cc(F)ccc1F [Example 1.235]
5 to 100 nM | CC(C)(O)CN1CC(CC(=O)NC(C)(C)c2ccccn2)(NC(=O)c2cc(-c3ccc(F)cc3F)on2)C1 [Example 1.255]
< 5 nM | CC(C)(NC(=O)CC1(NC(=O)c2cc(-c3ccc(F)cc3F)on2)CN([C@H]2CC[C@@](C)(O)CC2)C1)c1cccc(Cl)c1 [Example 1.220]
5 to 100 nM | COc1cccc(C(C)(C)NC(=O)CC2(NC(=O)c3cc(-c4ccc(F)cc4F)on3)CN([C@H]3CC[C@](C)(O)CC3)C2)c1 [Example 1.239]
1000 to 20000 nM | C[C@]1(O)CC[C@H](N2CC(CC(=O)NCc3ccccn3)(NC(=O)c3cc(-c4ccc(F)cc4F)on3)C2)CC1 [Example 1.099]
1000 to 20000 nM | CC(C)(NC(=O)CC1(NC(=O)c2cc(-c3ccc(F)cc3F)n[nH]2)CN([C@H]2CC[C@](C)(O)CC2)C1)c1cccc(Cl)c1 [Example 1.054]
5 to 100 nM | O=C(CC1(NC(=O)c2cc(-c3ccc(F)cc3F)on2)CN(C2CCCCC2)C1)NC1(c2ncccn2)CC1 [Example 1.332]
5 to 100 nM | CC(C)(C)CN1CC(CC(=O)NC2(c3ncccn3)CC2)(NC(=O)c2cc(-c3ccc(F)cc3F)on2)C1 [Example 1.330]
< 5 nM | Cc1cc(Cl)cc(C(C)(C)NC(=O)CC2(NC(=O)c3cc(-c4ccc(F)cc4F)on3)CN([C@H]3CC[C@](C)(O)CC3)C2)n1 [Example 1.003]
< 5 nM | CC(C)(NC(=O)CC1(NC(=O)c2cc(-c3ccc(F)cc3F)on2)CN(C2CCCCC2)C1)c1ccccc1F [Example 1.302]
100 to 1000 nM | CC(C)(NC(=O)CC1(NC(=O)c2cc(-c3ccc(F)cc3F)on2)CN(CCC(F)(F)F)C1)c1ccccn1 [Example 1.019]
5 to 100 nM | Cc1cncc(C(C)(C)NC(=O)CC2(NC(=O)c3cc(-c4ccc(F)cc4F)on3)CN([C@H]3CC[C@](C)(O)CC3)C2)c1 [Example 1.140]
100 to 1000 nM | Cc1ccc(C(C)(C)NC(=O)CC2(NC(=O)c3cc(-c4ccc(F)cc4F)on3)CN([C@H]3CC[C@@](C)(O)CC3)C2)cc1C(F)(F)F [Example 1.261]
5 to 100 nM | Cc1cccc(C(C)(C)NC(=O)CC2(NC(=O)c3cc(-c4ccc(F)cc4F)on3)CN(CC(C)(C)O)C2)n1 [Example 1.240]
5 to 100 nM | CC(C)(NC(=O)CC1(NC(=O)c2cc(-c3ccc(F)cc3F)on2)CN(C2CCOCC2)C1)c1cccc(Cl)c1 [Example 1.095]
< 5 nM | Cc1cc(Cl)cc(C(C)(C)NC(=O)CC2(NC(=O)c3nnc(-c4ccc(F)cc4F)s3)CN([C@H]3CC[C@](C)(O)CC3)C2)n1 [Example 1.006]
